Laboratory results taken from PubChem BioAssay (NCI).
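Following 48 hours of exposure in 96-well plates, responses at five concentrations were used to interpolate endpoints linearly. TGI: total growth inhibition.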

Tests used:
Assay in all cases: NCI tumour cell line growth inhibition, 48 h
[1] = tested on: 786-0 renal
[2] = tested on: A498 renal
[3] = tested on: A549 NSCLC
[4] = tested on: ACHN renal
[5] = tested on: CAKI-1 renal
[6] = tested on: CCRF-CEM leukemia
[7] = tested on: COLO 205 colon
[8] = tested on: DLD-1 colon
[9] = tested on: DMS 114 small cell lung
[10] = tested on: DMS 273 small cell lung
[11] = tested on: EKVX NSCLC
[12] = tested on: HCC-2998 colon
[13] = tested on: HCT-116 colon
[14] = tested on: HCT-15 colon
[15] = tested on: HL-60(TB) leukemia
[16] = tested on: HOP-18 NSCLC
[17] = tested on: HOP-62 NSCLC
[18] = tested on: HOP-92 NSCLC
[19] = tested on: HT29 colon
[20] = tested on: IGROV1 ovarian
[21] = tested on: K-562 leukemia
[22] = tested on: KM12 colon
[23] = tested on: KM20L2 colon
[24] = tested on: LXFL 529 NSCLC
[25] = tested on: M14 melanoma
[26] = tested on: M19-MEL melanoma
[27] = tested on: MALME-3M melanoma
[28] = tested on: MOLT-4 leukemia
[29] = tested on: NCI-H226 lung
[30] = tested on: NCI-H23 lung
[31] = tested on: NCI-H460 lung
[32] = tested on: NCI-H522 lung
[33] = tested on: OVCAR-3 ovarian
[34] = tested on: OVCAR-4 ovarian
[35] = tested on: OVCAR-5 ovarian
[36] = tested on: OVCAR-8 ovarian
[37] = tested on: RPMI-8226 leukemia
[38] = tested on: RXF 393 renal
[39] = tested on: SF-268 CNS
[40] = tested on: SF-295 CNS
[41] = tested on: SF-539 CNS
[42] = tested on: SK-MEL-2 melanoma
[43] = tested on: SK-MEL-28 melanoma
[44] = tested on: SK-MEL-5 melanoma
[45] = tested on: SK-OV-3 ovarian
[46] = tested on: SN12C renal
[47] = tested on: SNB-19 CNS
[48] = tested on: SNB-75 CNS
[49] = tested on: SNB-78 CNS
[50] = tested on: SR leukemia
[51] = tested on: SW-620 colon
[52] = tested on: TK-10 renal
[53] = tested on: U251 CNS
[54] = tested on: UACC-257 melanoma
[55] = tested on: UACC-62 melanoma
[56] = tested on: UO-31 renal
[57] = tested on: XF 498 CNS
[58] = tested on: LOX IMVI melanoma

Cc1cccc(C)c1NC(=O)C(=O)C(C#N)c1ccccc1Cl (stereo not given)
TGI [1]: > 100 µM | TGI [2]: > 100 µM | TGI [3]: > 100 µM | TGI [4]: > 100 µM | TGI [5]: > 100 µM | TGI [6]: > 100 µM | TGI [7]: > 100 µM | TGI [8]: > 100 µM | TGI [9]: > 100 µM | TGI [10]: > 100 µM | TGI [11]: > 100 µM | TGI [12]: > 100 µM | TGI [13]: > 100 µM | TGI [14]: > 100 µM | TGI [15]: > 100 µM | TGI [16]: > 100 µM | TGI [17]: > 100 µM | TGI [18]: > 100 µM | TGI [19]: > 100 µM | TGI [20]: > 100 µM | TGI [21]: > 100 µM | TGI [22]: > 100 µM | TGI [23]: > 100 µM | TGI [24]: > 100 µM | TGI [25]: > 100 µM | TGI [26]: > 100 µM | TGI [27]: > 100 µM | TGI [28]: > 100 µM | TGI [29]: > 100 µM | TGI [30]: > 100 µM | TGI [31]: > 100 µM | TGI [32]: > 100 µM | TGI [33]: > 100 µM | TGI [34]: > 100 µM | TGI [35]: > 100 µM | TGI [36]: > 100 µM | TGI [37]: > 100 µM | TGI [38]: > 100 µM | TGI [39]: > 100 µM | TGI [40]: > 100 µM | TGI [41]: > 100 µM | TGI [42]: > 100 µM | TGI [43]: > 100 µM | TGI [44]: > 100 µM | TGI [45]: > 100 µM | TGI [46]: > 100 µM | TGI [47]: > 100 µM | TGI [48]: > 100 µM | TGI [49]: > 100 µM | TGI [50]: > 100 µM | TGI [51]: > 100 µM | TGI [52]: > 100 µM | TGI [53]: > 100 µM | TGI [54]: > 100 µM | TGI [55]: > 100 µM | TGI [56]: > 100 µM | TGI [57]: > 100 µM

O=C(/C(=C\c1ccccc1)CN1CCOCC1)c1ccc(Br)cc1
TGI [1]: 3.13 µM | TGI [2]: 12.3 µM | TGI [3]: 17 µM | TGI [4]: 3.42 µM | TGI [5]: 3.95 µM | TGI [6]: 11.1 µM | TGI [7]: 7.71 µM | TGI [8]: 3.13 µM | TGI [9]: 4.5 µM | TGI [10]: 6.47 µM | TGI [11]: 9.47 µM | TGI [12]: 29.6 µM | TGI [13]: 3.2 µM | TGI [14]: 4.22 µM | TGI [15]: 4.48 µM | TGI [16]: 3.85 µM | TGI [17]: 13.1 µM | TGI [18]: 10.8 µM | TGI [19]: 4.56 µM | TGI [20]: 9.32 µM | TGI [21]: 15.9 µM | TGI [22]: 3.74 µM | TGI [23]: 7.12 µM | TGI [58]: 3.22 µM | TGI [24]: 4.67 µM | TGI [25]: 3.27 µM | TGI [26]: 3.43 µM | TGI [27]: 3.31 µM | TGI [28]: 19 µM | TGI [29]: 12.7 µM | TGI [30]: 8.48 µM | TGI [31]: 8.79 µM | TGI [32]: 2.59 µM | TGI [33]: 6.93 µM | TGI [34]: 8.11 µM | TGI [35]: 9.14 µM | TGI [36]: 3.34 µM | TGI [37]: 10.7 µM | TGI [38]: 5.99 µM | TGI [39]: 9.9 µM | TGI [40]: 15.6 µM | TGI [41]: 5.9 µM | TGI [42]: 3.74 µM | TGI [43]: 3.85 µM | TGI [44]: 4.08 µM | TGI [45]: 11.2 µM | TGI [46]: 4.35 µM | TGI [47]: 12.7 µM | TGI [48]: 24.9 µM | TGI [49]: 20.6 µM | TGI [50]: 17.4 µM | TGI [51]: 2.72 µM | TGI [52]: 12.2 µM | TGI [53]: 6.34 µM | TGI [54]: 8.93 µM | TGI [55]: 2.98 µM | TGI [56]: 3.29 µM | TGI [57]: 9.72 µM
